Measured values from US20200009163A1, “POLYPHOSPHATES AS INHIBITORS OF CALCIUM CRYSTALLIZATION” (priority 2017, published 2020).

Columns and labels:
[1] = ISE (ion selective electrode) measurement of inhibition of COM crystallization from aqueous solution; settings: FIG. 3
Source text: FIG. 3 depicts experimental results obtained using an example of a LTPP compound (Na5P3O10) and an example of a HMP compound ((NaPO3)6) to inhibit crystallization of […] from aqueous solution. Results for a citrate compound (Na3C6H5O7), which is commonly used in the treatment of kidney stones, is presented for purposes of comparison. In FIG. 3, the x-axis represents a measure of concentration (micromolar (μM) concentration on a logarithmic scale) of the inhibitor present in the solution. The y-axis represents percent inhibition (% reduction in the rate of crystallization) of COM crystallization as compared to a control solution having no inhibitor compounds therein. The effect of the inhibitors on COM growth was estimated using ISE (ion selective electrode) measurements. This measurement technique enables quantification of the extent of inhibition on calcium crystal growth as a function of inhibitor concentration. More specifically, ISE measures free calcium concentration in solution as a function of time to measure the rate of crystallization in the absence and presence of inhibitor. This technique can be used to measure the effectiveness of the polyphosphates and polyphosphate derivatives at inhibiting or modifying calcium crystal growth. The values of “% inhibition” that were obtained by this technique, and presented in FIG. 3 for the different combinations of inhibitor type and concentration, reflect rates of crystallization that have been normalized with respect to the rate of crystallization for a control solution (e.g., inhibitor concentration of zero). The % inhibition refers to the averages of at least 3 separate experiments. The solutions tested were aqueous solutions of calcium chloride (CaCl2)), sodium oxalate (Na2C2O4), and sodium chloride (NaCl). The tested solutions further included the inhibitor/modifier compound at the stated concentration level.

[2] = Bulk calcium oxalate crystallization, optical microscope images and crystal frequency; settings: for calcium oxalate crystals observed (optical microscope): control crystals approximately 25-50 μm along c-axis
Description: FIG. 4A depicts optical microscope images showing results of calcium oxalate crystallization from a control solution and solutions including LTPP Na5P3O10 at concentrations of 5 μM and 15 μM. FIG. 4B depicts effects of Na5P3O10 concentrations on calcium oxalate crystal frequency. […] Crystals formed from the control solution were approximately 25-50 μm in size as measured along the c-axis, which is the longest dimension.
FIG. 5A depicts optical microscope images showing results of calcium oxalate crystallization from a control solution and solutions including HMP (NaPO3)6 at concentrations of 0.3 μM and 0.7 μM. FIG. 5B depicts effects of (NaPO3)6 concentrations on calcium oxalate crystal frequency. […] Crystals formed from the control solution were approximately 25-50 μm in size as measured along the c-axis, which is the longest dimension.
FIG. 6 depicts optical microscope images showing results of calcium oxalate crystallization during bulk studies at different concentrations of LTPP. The leftmost image is a representative control crystal.

O=C(O)CC(O)(CC(=O)O)C(=O)O [citrate, Na3C6H5O7, reference compound]
percent inhibition (% reduction in the rate of crystallization) of COM crystallization ([1]; inhibitor concentration of around 320 μM, maximum reached even at much higher concentrations): about 60%

(NaPO3)6 [HMP]
percent inhibition (% reduction in the rate of crystallization) of COM crystallization ([1]; inhibitor concentration of less than about 1 μM, vs control solution without inhibitor): approximately 100% | calcium oxalate crystals observed (optical microscope) ([2]; 0.7 μM inhibitor, FIG. 5A): Very small crystals | calcium oxalate crystal frequency ([2]; higher HMP solution concentrations (above 0.7 μM), FIG. 5B): no definitive crystals being observed

Na5P3O10 [LTPP]
percent inhibition (% reduction in the rate of crystallization) of COM crystallization ([1]; inhibitor concentration range of about 5 μM to about 125 μM, vs control solution without inhibitor): 30-100% | crystal morphology (habit) of calcium oxalate crystals ([2]; 5 μM and 15 μM inhibitor vs control crystal, FIG. 6): morphology of the crystals change with increasing inhibitor concentration | calcium oxalate crystals observed (optical microscope) ([2]; 15 μM inhibitor, FIG. 4A): very small crystals | calcium oxalate crystal frequency ([2]; higher LTPP solution concentrations (above 15 μM), FIG. 4B): no definitive crystals being observed
